In patent publication US20240415825A1, “COMPOUNDS FOR THE TREATMENT OF MALARIA” (FUNDACIÓ INSTITUT DE BIOENGINYERIA DE CATALUNYA, priority 2021, published 2024):
Like-named read-outs stand apart in the source and are kept apart here.

System: P. falciparum 3D7 strain
Experiment: P. falciparum growth inhibition assay (3D7 strain)
Format: cell-based, Plasmodium falciparum
Conditions: 3D7 strain
Description: After the synchronization process, a new culture at 1.5% parasitemia and 2% hematocrit was established and 150 μL aliquots of it were transferred to 96-well plates.
The required amounts of peptides, antimalarial compounds and dyes were added in each well at different concentrations and in triplicates. A positive growth control of untreated parasites and a negative growth control of parasites treated with a lethal dose of chloroquine (1 μM) were also included.
Parasites were grown for 48 h, a complete replication cycle, in standard culturing conditions (5% O2, 5% CO2, and 90% N2 at 37° C.). After the incubation period, 3 μL of culture from each well were mixed with 197 μL of PBS containing 0.1 μM Syto 11 (Thermo Fisher Scientific Inc), to obtain a final concentration of ca. 1-10×10^6 cells/ml.
Parasitemia was assessed by flow cytometry using a LSRFortessa flow cytometer (BD Biosciences, San Jose, CA, USA) set up with the 4 lasers, 20 parameters standard configuration. The single-cell population was selected on a forward-side scatter scattergram.
Growth inhibition was calculated taking as reference values both the growth rate of the untreated culture and the growth rate of the culture treated with chloroquine.

[1] = Plasmodium falciparum, Example 8, read-out: IC50 in 3D7 strain

Row | SMILES | IC50 [1] [µM] | antimalarial / antiplasmodial activity in vitro | IC50 (48 h, Table 2, read-out: IC50 in 3D7 strain (μM) ± SEM) [µM]
1 | Nc1c(/N=N/c2ccc(-c3ccc(/N=N/c4cc(S(=O)(=O)[O-])c5ccccc5c4N)cc3)cc2)cc(S(=O)(=O)[O-])c2ccccc12.[Na+].[Na+] [Congo Red, reference compound] |  | did not exhibit significant antiplasmodial activity | > 15
2 | Cc1c[n+](CCCCCCCCCC[n+]2ccc(/C=C/c3ccc(N(C)C)cc3)c(C)c2)ccc1/C=C/c1ccc(N(C)C)cc1.[Br-].[Br-] [EMA357, 1,1′-(decane-1,10-diyl)bis{4-[(E)-4-(dimethylamino)styryl]-3-methylpyridin-1-ium} dibromide] | 0.12 | potent antimalarial activity | 
3 | Cc1c[n+](CCCCCCCCCC[n+]2ccc(/C=C/c3ccc(N(C)CCC#N)cc3)c(C)c2)ccc1/C=C/c1ccc(N(C)CCC#N)cc1.[Br-].[Br-] [EMA359, 1,1′-(decane-1,10-diyl)bis{4-{(E)-4-[(2-cyanoethyl)methylamino]styryl}-3-methylpyridin-1-ium} dibromide] | 0.11 | potent antimalarial activity | 
4 | Cc1c[n+](CCCCCCCCCC[n+]2ccc(/C=C/c3ccc(N(c4ccccc4)c4ccccc4)cc3)c(C)c2)ccc1/C=C/c1ccc(N(c2ccccc2)c2ccccc2)cc1 [EMA366, 1,1′-(decane-1,10-diyl)bis{4-[(E)-4-(diphenylamino)styryl]-3-methylpyridin-1-ium} dibromide] | 0.52 |  | 
5 | Cc1c[n+](CCCCCCCCCC[n+]2ccc(/C=C/c3ccc(N4CCCC4)cc3)c(C)c2)ccc1/C=C/c1ccc(N2CCCC2)cc1 [EMA368, 1,1′-(decane-1,10-diyl)bis{3-methyl-4-[(E)-4-(pyrrolidin-1-yl)styryl]pyridin-1-ium} dibromide] | 0.29 |  | 
6 | Cc1c[n+](CCCCCCCCCC[n+]2ccc(/C=C/c3ccc(N4CCOCC4)cc3)c(C)c2)ccc1/C=C/c1ccc(N2CCOCC2)cc1.[Br-].[Br-] [EMA377, 1,1′-(decane-1,10-diyl)bis{3-methyl-4-[(E)-4-morpholinostyryl]pyridin-1-ium} dibromide] | 0.06 | potent antimalarial activity | 

Second part, led by results:

Row | IC50 [1] [µM] | SMILES | antimalarial / antiplasmodial activity in vitro | IC50 (48 h, Table 2, read-out: IC50 in 3D7 strain (μM) ± SEM) [µM]
7 | 0.42 | CCN(CC)c1ccc(/C=C/c2cc[n+](CCCC[n+]3ccc(/C=C/c4ccc(N(CC)CC)cc4)c(C)c3)cc2C)cc1 [PRC-5, 1,1′-(butane-1,4-diyl)bis{4-[(E)-4-(diethylamino)styryl]-3-methylpyridin-1-ium} dibromide] |  | 
8 | 0.14 | CCN(CC)c1ccc(/C=C/c2cc[n+](CCCCCCCC[n+]3ccc(/C=C/c4ccc(N(CC)CC)cc4)c(C)c3)cc2C)cc1.[Br-].[Br-] [PRC-8, 1,1′-(octane-1,8-diyl)bis{4-[(E)-4-(diethylamino)styryl]-3-methylpyridin-1-ium} dibromide] | potent antimalarial activity | 
9 | 0.06 | CCN(CC)c1ccc(/C=C/c2cc[n+](CCCCCCCCCCC[n+]3ccc(/C=C/c4ccc(N(CC)CC)cc4)c(C)c3)cc2C)cc1.[Br-].[Br-] [PRC-14, 1,1′-(undecane-1,11-diyl)bis{4-[(E)-4-(diethylamino)styryl]-3-methylpyridin-1-ium} dibromide] | potent antimalarial activity | 
10 | 0.06 | CCN(CC)c1ccc(/C=C/c2cc[n+](CCCCCCCCCCCC[n+]3ccc(/C=C/c4ccc(N(CC)CC)cc4)c(C)c3)cc2C)cc1.[Br-].[Br-] [PRC-15, 1,1′-(dodecane-1,12-diyl)bis{4-[(E)-4-(diethylamino)styryl]-3-methylpyridin-1-ium} dibromide] | potent antimalarial activity | 
11 | 0.2 | CCN(CC)c1ccc(/C=C/c2cc[n+](CCOCCOCC[n+]3ccc(/C=C/c4ccc(N(CC)CC)cc4)c(C)c3)cc2C)cc1 [PRC-20, 1,1′-(3,6-dioxaoctane-1,8-diyl)bis{4-[(E)-4-(diethylamino)styryl]-3-methylpyridin-1-ium} diiodide] |  | 
